IC50 data for 11 molecules are collected here from patent US9133157B2, “HIV protease inhibitors” (Merck Canada Inc., priority 2011, dated 2015).

Molecules are shown by their SMILES.

In the experiment the target is WT HIV-1 protease (Human immunodeficiency virus type 1 group M subtype B (isolate HXB2) (HIV-1), UniProt P04585). Put plainly: Assay for inhibition of microbial expressed HIV protease (Procedure A, peptide substrate, HPLC fluorescence detection). Conditions: WT HIV-1 protease 10 pM, substrate 400 micromolar, pH 5.5, 30 min preincubation, 1 hour at 30° C.; read-out: Enzyme inhibition IC50. The format is biochemical. In a few lines:
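E. coli-expressed enzyme preincubated 30 min at room temperature with compound in 50 mM sodium acetate pH 5.5, 100 mM NaCl, 0.1% BSA. Reaction ran 1 h at 30° C with 400 micromolar Val-Ser-Gln-Asn-(betanaphthyl)Ala-Pro-Ile-Val substrate and 10 picomolar protease. After phosphoric acid quench, product was measured by C18 HPLC with fluorescence (ex 270/em 330 nm).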
In the case of `COC(=O)N[C@H](C(=O)NC(C)(C)c1ccc(C(CO)N(CCC(C)C)S(=O)(=O)c2ccccc2)s1)C(c1ccccc1)c1ccccc1` (some centres unmarked) [Example 64], the IC50 was 6.48 nM. In the case of `COC(=O)N[C@H](C(=O)N[C@H](c1ccc([C@@H](CO)N(CCC(C)(C)C)S(=O)(=O)c2ccc3nc[nH]c3c2)s1)C(F)(F)F)C(c1ccccc1)c1ccccc1` [Example 74, N-[(1S)-1-(5-{(1R)-1-[(1H-benzimidazol-6-ylsulfonyl)(3,3-dimethylbutyl)amino]-2-hydroxyethyl}thiophen-2-yl)-2,2,2-trifluoroethyl]-Nα-(methoxycarbonyl)-β-phenyl-L-phenylalaninamide], the IC50 worked out at 0.45 nM. As for `CCCCN([C@H](CO)c1ccc([C@@H](NC(=O)[C@@H](NC(=O)OC)C(c2ccccc2)c2ccccc2)C(F)(F)F)s1)S(=O)(=O)c1ccc(N)cc1` [Example 88, N-[(1S)-1-{5-[(1R)-1-{[(4-aminophenyl)sulfonyl](butyl)amino}-2-hydroxyethyl]thiophen-2-yl}-2,2,2-trifluoroethyl]-Nα-(methoxycarbonyl)-β-phenyl-L-phenylalaninamide], the figure is 0.33 nM. As for `COC(=O)N[C@H](C(=O)N[C@H](c1ccc([C@@H](CO)N(CCC(C)(C)C)S(=O)(=O)c2ccc3[nH]ccc3c2)s1)C(F)(F)F)C(c1ccccc1)c1ccccc1` [Example 103, N-[(1S)-1-(5-{(1R)-1-[(3,3-dimethylbutyl)(1H-indol-5-ylsulfonyl)amino]-2-hydroxyethyl}thiophen-2-yl)-2,2,2-trifluoroethyl]-Nα-(methoxycarbonyl)-β-phenyl-L-phenylalaninamide], the IC50 amounted to 6.14 nM.

Turning to `COC(=O)N[C@H](C(=O)NCc1ccc([C@@H](CO)N(Cc2ccnc(OC)c2)S(=O)(=O)c2ccc3scnc3c2)s1)C(c1ccccc1)c1ccccc1` [Example 28], the IC50 worked out at 1.45 nM. `COC(=O)N[C@H](C(=O)N[C@H](c1ccc([C@@H](CO)N(CCC(C)(C)C)S(=O)(=O)c2ccc(N)c(Cl)c2)s1)C(F)(F)F)C(c1ccccc1)c1ccccc1` [Example 116, N-[(1S)-1-(5-{(1R)-1-[[(4-amino-3-chlorophenyl)sulfonyl](3,3-dimethylbutyl)amino]-2-hydroxyethyl}-2-thienyl)-2,2,2-trifluoroethyl]-Nα-(methoxycarbonyl)-β-phenyl-L-phenylalaninamide]: the half-maximal inhibitory concentration (IC50) was 3.54 nM. As for `COC(=O)N[C@H](C(=O)NCc1ccc(C(CO)N(Cc2ccnc(OC)c2)S(=O)(=O)c2ccc3scnc3c2)s1)C(c1ccccc1)c1ccccc1` (some centres unmarked) [Example 27], the figure is 15.5 nM; as for `COC(=O)N[C@H](C(=O)N[C@H](c1ccc([C@@H](CO)N(CCC(C)(C)C)S(=O)(=O)c2ccc(-c3cnco3)cc2)s1)C(F)(F)F)C(c1ccccc1)c1ccccc1` [Example 90, N-[(1S)-1-(5-{(1R)-1-[(3,3-dimethylbutyl){[4-(1,3-oxazol-5-yl)phenyl]sulfonyl}amino]-2-hydroxyethyl}thiophen-2-yl)-2,2,2-trifluoroethyl]-Nα-(methoxycarbonyl)43-phenyl-L-phenylalaninamide], 25.9 nM. In the case of `COC(=O)N[C@H](C(=O)N[C@H](c1ccc([C@@H](CO)N(CCC(C)(C)C)S(=O)(=O)c2cc3ccccc3s2)s1)C(F)(F)F)C(c1ccccc1)c1ccccc1` [Example 95, N-[(1S)-1-(5-{(1R)-1-[(1-benzothiophen-2-ylsulfonyl)(3,3-dimethylbutyl)amino]-2-hydroxyethyl}thiophen-2-yl)-2,2,2-trifluoroethyl]-Nα-(methoxycarbonyl)-β-phenyl-L-phenylalaninamide], the concentration for half-maximal inhibition (IC50) was determined as 6.95 nM.

For the molecule `COC(=O)N[C@H](C(=O)NCc1ccc([C@H](CO)N(Cc2ccnc(OC)c2)S(=O)(=O)c2ccc3scnc3c2)s1)C(c1ccccc1)c1ccccc1` [Example 29], the half-maximal inhibitory concentration (IC50) is 106 nM. For `COC(=O)N[C@H](C(=O)NCc1ccc([C@@H](CO)N(CC2CC(F)(F)C2)S(=O)(=O)c2cccc(C(=O)c3ccccn3)c2)s1)C(c1ccccc1)c1ccccc1` [Example 40], the IC50 came out at 175 nM.
